Results taken from PubChem BioAssay AID1259411 (Chemical Carcinogenesis Research Information System (CCRIS), 2018).
Active and inactive are the calls of the source. The rule behind the calls is not given here.

Tested on: rodent carcinogenicity bioassays, tumor incidence
Test: CCRIS carcinogenicity studies
Procedure, shortened: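 NCI-built, expert-reviewed records of carcinogenicity and related test outcomes (mutagenicity, tumor promotion/inhibition) compiled from published and report sources, historical span 1985-2011, not updated.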

With CCCCCOC(=O)COc1cc(N2C(=O)C3=C(CCCC3)C2=O)c(F)cc1Cl the carcinogen call (Species: Mouse, Strain/Sex: CD-1 (ICR)/Female (51/Group), Route: Oral, Dose: 0, 37.8, 368.1, 850.1 mg/kg/day of 94.7% flumiclorac pentyl in diet for 78 wk, study duration 78 wk, Dose: 0, 37.8, 368.1, 850.1 mg/kg/day of 94.7% flumiclorac pentyl in diet for 78 wk, study duration 78 wk) was “inactive; negative”, the carcinogen call (Species: Mouse, Strain/Sex: CD-1 (ICR)/Male (51/Group), Route: Oral, Dose: 0, 31.5, 307.9, 731.4 mg/kg/day of 94.7% flumiclorac pentyl in diet for 78 wk, study duration 78 wk, Dose: 0, 31.5, 307.9, 731.4 mg/kg/day of 94.7% flumiclorac pentyl in diet for 78 wk, study duration 78 wk) was “inactive; negative” and the carcinogen call (Species: Rat, Strain/Sex: Crj:CD(SD)/Female (50/Group), Route: Oral, Dose: 0, 4.3, 43.6, 443.8, 919.4 mg/kg/day of 94.4% flumiclorac pentyl in diet for 24 mo, study duration 24 mo, Dose: 0, 4.3, 43.6, 443.8, 919.4 mg/kg/day of 94.4% flumiclorac pentyl in diet for 24 mo, study duration 24 mo) was “inactive; negative”. For the same compound, the carcinogen call (Species: Rat, Strain/Sex: Crj:CD(SD)/Male (50/Group), Route: Oral, Dose: 0, 3.5, 35.4, 360.4, 744.9 mg/kg/day of 94.4% flumiclorac pentyl in diet for 24 mo, study duration 24 mo, Dose: 0, 3.5, 35.4, 360.4, 744.9 mg/kg/day of 94.4% flumiclorac pentyl in diet for 24 mo, study duration 24 mo) was “inactive; negative”.
With O=[N+]([O-])c1ccc2nc[nH]c2c1 the carcinogen call (Species: MOUSE, Strain/Sex: B6C3F1/FEMALE, Route: ORAL, Dose: 0, 0.12, 0.24% OF DIET, Dose: 0, 0.12, 0.24% OF DIET, Tumor Site: Type of Lesion: LIVER: HEPATOCELLULAR CARCINOMA OR HEPATOCELLULAR ADENOMA) was “active; positive”, the carcinogen call (Species: MOUSE, Strain/Sex: B6C3F1/MALE, Route: ORAL, Dose: 0, 0.12, 0.24% OF DIET, Dose: 0, 0.12, 0.24% OF DIET, Tumor Site: Type of Lesion: LIVER: HEPATOCELLULAR CARCINOMA OR HEPATOCELLULAR ADENOMA) was “active; positive” and the carcinogen call (Species: RAT, Strain/Sex: F344/FEMALE, Route: ORAL, Dose: 0, 0.12, 0.5% OF DIET, Dose: 0, 0.12, 0.5% OF DIET) was “inactive; negative”. For the same compound, the carcinogen call (Species: RAT, Strain/Sex: F344/MALE, Route: ORAL, Dose: 0, 0.12, 0.5% OF DIET, Dose: 0, 0.12, 0.5% OF DIET) was “inactive; negative”.
For O=[N+]([O-])c1ccc(Cl)cc1, the carcinogen call (Species: MOUSE, Strain/Sex: CD-1/MALE,FEMALE, Route: ORAL, Tumor Site: Type of Lesion: BLOOD VESSELS) was “active; positive”.
For CCCCOCCO, the carcinogen call (Species: MOUSE, Strain/Sex: B6C3F1/FEMALE, Route: INHALATION, Dose: 0, 62.5, 125, 250 PPM 6 HR/D 5D/WK FOR 104 WK (STUDY DURATION: 104 WK), Dose: 0, 62.5, 125, 250 PPM 6 HR/D 5D/WK FOR 104 WK (STUDY DURATION: 104 WK), Tumor Site: Type of Lesion: FORESTOMACH: SQUAMOUS CELL PAPILLOMA OR CARCINOMA) was “active; positive”, the carcinogen call (Species: MOUSE, Strain/Sex: B6C3F1/MALE, Route: INHALATION, Dose: 0, 62.5, 125, 250 PPM 6 HR/D 5D/WK FOR 104 WK (STUDY DURATION: 104 WK), Dose: 0, 62.5, 125, 250 PPM 6 HR/D 5D/WK FOR 104 WK (STUDY DURATION: 104 WK), Tumor Site: Type of Lesion: LIVER: HEMANGIOSARCOMA, HEPATOCELLULAR CARCINOMA) was “active; positive” and the carcinogen call (Species: RAT, Strain/Sex: F344/FEMALE, Route: INHALATION, Dose: 0, 31.2, 62.5, 125 PPM 6 HR/D 5D/WK FOR 104 WK (STUDY DURATION: 104 WK), Dose: 0, 31.2, 62.5, 125 PPM 6 HR/D 5D/WK FOR 104 WK (STUDY DURATION: 104 WK), Tumor Site: Type of Lesion: ADRENAL MEDULLA: BENIGN OR MALIGNANT PHEOCHROMOCYTOMA) was “equivocal”. For the same compound, the carcinogen call (Species: RAT, Strain/Sex: F344/MALE, Route: INHALATION, Dose: 0, 31.2, 62.5, 125 PPM 6 HR/D 5D/WK FOR 104 WK (STUDY DURATION: 104 WK), Dose: 0, 31.2, 62.5, 125 PPM 6 HR/D 5D/WK FOR 104 WK (STUDY DURATION: 104 WK)) was “inactive; negative”.
[2H]c1c([2H])c([2H])c2c(C([2H])([2H])[2H])c3c(c([2H])c([2H])c4c([2H])c([2H])c([2H])c([2H])c43)c(C([2H])([2H])[2H])c2c1[2H] was tested, and the carcinogen call (Species: MOUSE, Strain/Sex: SWISS/FEMALE, Route: SUBCUTANEOUS, Dose: IN OLIVE OIL 1/MO FOR 3 MO FOR A TOTAL DOSE OF 0, 1.5 MG (STUDY DURATION: 395 D), Tumor Site: Type of Lesion: INJECTION SITE: FIBROBLASTIC SARCOMA) was “active; positive” and the carcinogen call (Species: MOUSE, Strain/Sex: SWISS/MALE, Route: SUBCUTANEOUS, Dose: IN OLIVE OIL 1/MO FOR 3 MO FOR A TOTAL DOSE OF 0, 1.5 MG (STUDY DURATION: 395 D), Tumor Site: Type of Lesion: INJECTION SITE: FIBROBLASTIC SARCOMA) was “active; positive”.
CC1(C)[C@H](C(=O)O[C@H](C#N)c2cccc(Oc3ccccc3)c2)[C@@H]1C=C(Br)Br was tested, and the carcinogen call (Species: MOUSE, Strain/Sex: C57BL/FEMALE, Route: INTRAGASTRIC, Dose: 0, 1, 4, 8 MG/KG IN ARACHIS OIL 5 D/WK FOR 104 WK (STUDY DURATION: 120 WK), Dose: 0, 1, 4, 8 MG/KG IN ARACHIS OIL 5 D/WK FOR 104 WK (STUDY DURATION: 120 WK)) was “inactive; negative”, the carcinogen call (Species: MOUSE, Strain/Sex: C57BL/MALE, Route: INTRAGASTRIC, Dose: 0, 1, 4, 8 MG/KG IN ARACHIS OIL 5 D/WK FOR 104 WK (STUDY DURATION: 120 WK), Dose: 0, 1, 4, 8 MG/KG IN ARACHIS OIL 5 D/WK FOR 104 WK (STUDY DURATION: 120 WK)) was “inactive; negative” and the carcinogen call (Species: MOUSE, Strain/Sex: SWISS/MALE, FEMALE, Route: DERMAL, Dose: 0, 1, 2, 4 MG/KG BW IN 200 µL ACETONE 3/WK FOR 32 WK (STUDY DURATION: 32 WK), Dose: 0, 1, 2, 4 MG/KG BW IN 200 µL ACETONE 3/WK FOR 32 WK (STUDY DURATION: 32 WK)) was “inactive; negative”. For the same compound, the carcinogen call (Species: Mouse, Strain/Sex: Crl:CD-1(ICR)BR/Female (50/Group), Route: Oral, Dose: 0, 10, 100, 1000, 2000 ppm in feed for 97 wk, Dose: 0, 10, 100, 1000, 2000 ppm in feed for 97 wk) was “inactive; negative”, the carcinogen call (Species: Mouse, Strain/Sex: Crl:CD-1(ICR)BR/Male (50/Group), Route: Oral, Dose: 0, 10, 100, 1000, 2000 ppm in feed for 97 wk, Dose: 0, 10, 100, 1000, 2000 ppm in feed for 97 wk) was “inactive; negative” and the carcinogen call (Species: RAT, Strain/Sex: BDVI/FEMALE, Route: INTRAGASTRIC, Dose: 0, 3, 6 MG/KG IN ARACHIS OIL 5 D/WK FOR 104 WK (STUDY DURATION: 120 WK), Dose: 0, 3, 6 MG/KG IN ARACHIS OIL 5 D/WK FOR 104 WK (STUDY DURATION: 120 WK), Tumor Site: Type of Lesion: THYROID: ADENOMA) was “active; positive”. For the same compound, the carcinogen call (Species: RAT, Strain/Sex: BDVI/MALE, Route: INTRAGASTRIC, Dose: 0, 3, 6 MG/KG IN ARACHIS OIL 5 D/WK FOR 104 WK (STUDY DURATION: 120 WK), Dose: 0, 3, 6 MG/KG IN ARACHIS OIL 5 D/WK FOR 104 WK (STUDY DURATION: 120 WK), Tumor Site: Type of Lesion: THYROID: ADENOMA) was “active; positive”, the carcinogen call (Species: Rat, Strain/Sex: Crl:CD(SD)BR/Female (50/Group), Route: Oral, Dose: 0, 25, 125, 500, 800 ppm in feed for 2 yr, Dose: 0, 25, 125, 500, 800 ppm in feed for 2 yr) was “inactive; negative” and the carcinogen call (Species: Rat, Strain/Sex: Crl:CD(SD)BR/Male (50/Group), Route: Oral, Dose: 0, 25, 125, 500, 800 ppm in feed for 2 yr, Dose: 0, 25, 125, 500, 800 ppm in feed for 2 yr) was “inactive; negative”.
